Laboratory results published in patent US20090325959A1 (priority 2008, published 2009).
pKi: −log10 of the molar value. Read-outs that look alike come from different tables or passages of the source.

Assays:
p70S6K human enzyme = target: T1, p70S6K human enzyme (Homo sapiens, UniProt P23443, T412E); experiment: p70S6K inhibition assay (IMAP FP); assay type: biochemical;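 also: kinase reaction run at room temperature, phosphorylated substrate captured on IMAP beads and read as fluorescence polarization in mP, IC50 then converted to Ki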
T1 construct: purchased Upstate Chemicon 14-486
Protocol: Inhibition of Akt3 and p70S6K activity was determined using the IMAP™ FP Progressive Binding Kit (Molecular Devices product number R8127). […] Following the pre-incubation, 30 μM ATP was added to initiate the reaction. After 60 minutes at RT, Molecular Devices IMAP™ binding solution was added to bind phosphorylated substrate. After 30 minutes of incubation in the presence of the IMAP™ beads the fluorescence polarization was read and the ratio was reported as mP. IC50 results were calculated using the Prism software from Graphpad. The Ki values were determined according to the following formula: Ki=IC50/(1+([ATP Challenge]/EC50 ATP)).

ROCK2 = target: T2, ROCK2 (Homo sapiens, UniProt O75116); experiment: Rho kinase inhibition assay (IMAP fluorescence polarization), ROCK2; assay type: biochemical;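 also: kinase reaction started with 10 µM ATP and run 60 min at room temperature, then phosphorylated substrate captured on IMAP beads for 30 min and fluorescence polarization read in mP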
T2 construct: purchased Upstate/Chemicon 14-451
Protocol: (§1) Following the pre-incubation, 10 μM ATP was added to initiate the reaction. After 60 minutes at room temperature, Molecular Devices IMAP™ binding solution was added to bind phosphorylated substrate. After 30 minutes of incubation in the presence of the IMAP™ beads, the fluorescence polarization was read and the ratio was reported as mP. IC50 values for compounds and EC50 values for ATP were calculated using the Prism software from Graphpad.

Akt3 human enzyme = target: T3, Akt3 human enzyme (Homo sapiens, UniProt Q9Y243); experiment: Akt3 inhibition assay (IMAP FP); assay type: biochemical;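 also: kinase reaction run 60 min at room temperature after 30 µM ATP start, phosphorylated substrate captured on IMAP beads and read as fluorescence polarization (mP)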
T3 construct: purchased Upstate Chemicon 14-502

[1] = Compound plasma concentrations in unsensitized mice at 15 min post administration; assay type: in vivo; conditions: mouse, 15 μmol/kg; mean compound plasma concentration in mice at 15 minutes post oral administration; read-out: Mouse Oral PK
Protocol: Additionally, compound concentrations were determined in the plasma and lungs of male, ovalbumin-sensitized, Balb/c mice from a murine model of asthma. Test compounds were formulated in water or 1% polysorbate 80 and dosed at 15 μmol/kg for intraperitoneal (IP) or oral (PO) administration or formulated for intratracheal (IT) administration and dosed at 5 μmol/kg, which directly targets the lungs. Following completion of the in vivo study, mice were euthanized and blood and plasma collected approximately 2.5-3 hours post administration of test compound for bronchodialator (BD) studies and 24 hours post administration for anti-inflamatory (AI) studies. Lungs were homogenized in Matrix A lysing tubes using a FastPrep 24 tissue and cell homogenizer (MP Biomedicals, Solon, Ohio). Both plasma samples and lung extracts were assayed for compound concentrations using an on-line, solid phase extraction LC/MS/MS system.

ROCK1 = target: T4, ROCK1 (Homo sapiens, UniProt Q13464); experiment: Rho kinase inhibition assay (IMAP fluorescence polarization), ROCK1; assay type: biochemical;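 also: kinase reaction run 60 min at room temperature, then phosphorylated substrate captured on IMAP beads for 30 min, with fluorescence polarization read in mP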
T4 construct: purchased Upstate/Chemicon 14-601
Protocol: as §1

[2] = 30 μM ATP, Ki=IC50/(1+([ATP Challenge]/EC50 ATP)), read-out: p70S6K Ki, Avg
[3] = average Ki, read-out: p70S6K Ki
[4] = 10 μM ATP, read-out: ROCK2 Ki, Avg
[5] = 30 μM ATP, Ki=IC50/(1+([ATP Challenge]/EC50 ATP)), read-out: Akt3 Ki, Avg

T3 sequence (Q9Y243 whole entry): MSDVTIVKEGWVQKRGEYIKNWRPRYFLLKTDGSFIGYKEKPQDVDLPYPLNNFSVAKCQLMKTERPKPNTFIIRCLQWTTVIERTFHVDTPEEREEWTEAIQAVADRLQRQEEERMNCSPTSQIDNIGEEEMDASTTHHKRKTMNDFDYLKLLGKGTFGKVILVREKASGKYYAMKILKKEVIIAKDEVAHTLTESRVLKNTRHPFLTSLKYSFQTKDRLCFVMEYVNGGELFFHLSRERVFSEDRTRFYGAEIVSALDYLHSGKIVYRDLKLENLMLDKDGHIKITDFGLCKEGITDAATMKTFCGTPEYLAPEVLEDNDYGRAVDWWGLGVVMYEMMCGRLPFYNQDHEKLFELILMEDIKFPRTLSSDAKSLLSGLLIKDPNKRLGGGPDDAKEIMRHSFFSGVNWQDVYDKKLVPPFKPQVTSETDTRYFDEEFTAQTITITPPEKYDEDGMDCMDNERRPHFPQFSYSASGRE
T4 sequence (Q13464 17-535 limits assumed): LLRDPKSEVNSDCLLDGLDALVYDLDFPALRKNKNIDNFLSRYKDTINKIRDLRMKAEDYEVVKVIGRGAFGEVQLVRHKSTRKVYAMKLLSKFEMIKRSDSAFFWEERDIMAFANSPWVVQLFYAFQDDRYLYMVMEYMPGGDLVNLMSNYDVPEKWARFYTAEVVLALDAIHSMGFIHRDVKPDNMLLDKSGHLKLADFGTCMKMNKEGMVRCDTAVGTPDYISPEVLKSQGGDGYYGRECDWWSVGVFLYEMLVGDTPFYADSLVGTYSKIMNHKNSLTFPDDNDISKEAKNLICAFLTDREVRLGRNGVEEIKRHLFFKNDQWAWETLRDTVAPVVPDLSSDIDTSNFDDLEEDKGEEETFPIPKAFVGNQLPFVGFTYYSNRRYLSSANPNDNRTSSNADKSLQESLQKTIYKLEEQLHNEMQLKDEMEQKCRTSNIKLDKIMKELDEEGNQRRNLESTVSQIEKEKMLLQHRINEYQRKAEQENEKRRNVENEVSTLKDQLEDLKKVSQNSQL
T2 sequence (O75116 11-552 limits assumed): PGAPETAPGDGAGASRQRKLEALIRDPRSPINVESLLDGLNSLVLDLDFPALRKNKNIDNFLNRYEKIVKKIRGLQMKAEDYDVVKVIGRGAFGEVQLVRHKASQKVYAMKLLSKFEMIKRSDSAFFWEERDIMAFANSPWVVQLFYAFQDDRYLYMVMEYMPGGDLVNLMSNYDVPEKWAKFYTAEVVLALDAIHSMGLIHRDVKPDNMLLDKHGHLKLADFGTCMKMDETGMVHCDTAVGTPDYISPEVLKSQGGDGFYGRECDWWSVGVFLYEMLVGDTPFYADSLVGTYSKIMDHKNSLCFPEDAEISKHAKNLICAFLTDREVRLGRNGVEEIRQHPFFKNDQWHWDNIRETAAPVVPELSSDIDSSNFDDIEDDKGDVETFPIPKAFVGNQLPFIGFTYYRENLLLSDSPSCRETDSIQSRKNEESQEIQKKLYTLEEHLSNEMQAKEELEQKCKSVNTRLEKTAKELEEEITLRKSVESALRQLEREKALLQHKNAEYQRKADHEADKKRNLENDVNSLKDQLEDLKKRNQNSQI
T1 sequence (P23443 1-421 T412E limits assumed): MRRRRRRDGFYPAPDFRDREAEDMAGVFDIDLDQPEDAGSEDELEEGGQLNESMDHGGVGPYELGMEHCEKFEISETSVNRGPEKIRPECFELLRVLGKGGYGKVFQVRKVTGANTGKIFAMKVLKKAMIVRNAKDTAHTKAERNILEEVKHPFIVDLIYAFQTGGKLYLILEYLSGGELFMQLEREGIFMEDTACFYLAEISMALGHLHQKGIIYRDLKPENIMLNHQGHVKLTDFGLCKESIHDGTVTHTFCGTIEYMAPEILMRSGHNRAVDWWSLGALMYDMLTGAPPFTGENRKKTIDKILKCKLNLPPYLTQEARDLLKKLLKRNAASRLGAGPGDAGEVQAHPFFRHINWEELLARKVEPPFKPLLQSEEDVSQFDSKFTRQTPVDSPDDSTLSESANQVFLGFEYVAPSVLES

Compound | pKi (p70S6K human enzyme; [2]) | pKi (p70S6K human enzyme; [3]) | pKi (ROCK2; [4]) | pKi (ROCK2; average Ki, read-out: ROCK2 Ki) | pKi (Akt3 human enzyme; [5]) | pKi (Akt3 human enzyme; average Ki, read-out: Akt3 Ki) | concentration at 15 min [1] [nM] | pKi (ROCK1; Avg, 10 μM ATP) | pKi (ROCK1; average Ki)
CSc1ccc(CN2CCC[C@H](Nc3ccc4[nH]ncc4c3)C2)cc1 [Compound 1.075, (S)-N-(1-(4-(methylthio)benzyl)piperidin-3-yl)-1H-indazol-5-amine] | 6.01 | 6.01 | 8.36 | 8.36 | 5.27 | 5.27 | 348 | 7.31 | 7.31
c1cc2c(cc1CN1CCC[C@H](Nc3ccc4[nH]ncc4c3)C1)OCCO2 [Compound 1.166, (S)-N-(1-((2,3-dihydrobenzo[b][1,4]dioxin-6-yl)methyl)piperidin-3-yl)-1H-indazol-5-amine] | 5.29 | 5.29 | 8.10 | 8.10 | 4.74 | 4.74 | 342 | 7.02 | 7.02
NC(=O)COc1cccc(CN2CCC[C@H](Nc3ccc4[nH]ncc4c3)C2)c1 [Compound 1.195] | 5.56 | 5.56 | 7.99 | 7.99 | 4.66 | 4.66 | 108 | 6.71 | 6.71
CCCCS(=O)(=O)Nc1cc(CN2CCC[C@H](Nc3ccc4[nH]ncc4c3)C2)ccc1C [Compound 1.236, (S)-N-(5-((3-(1H-indazol-5-ylamino)piperidin-1-yl)methyl)-2-methylphenyl)butane-1-sulfonamide] | 5.56 | 5.56 | 8.68 | 8.68 | 5.43 | 5.43 | 48 | 7.31 | 7.31
NS(=O)(=O)c1cccc(CN2CCC[C@@H](Nc3ccc4[nH]ncc4c3)C2)c1 [Compound 1.249, (R)-3-((3-(1H-indazol-5-ylamino)piperidin-1-yl)methyl)benzenesulfonamide] | 6.03 | 6.03 | 8.07 | 8.07 | 5.80 | 5.80 | 2150 | 7.04 | 7.04
Cc1ccc(CN2CCC[C@@H](Nc3ccc4[nH]ncc4c3)C2)c(C)c1 [Compound 1.137, (R)-N-(1-(2,4-dimethylbenzyl)piperidin-3-yl)-1H-indazol-5-amine] | 6.45 | 6.45 | 8.29 | 8.14 | 6.70 | 6.70 | 557 | 7.59 | 7.44
c1ccc2c(CN3CCC[C@@H](Nc4ccc5[nH]ncc5c4)C3)c[nH]c2c1 [Compound 1.252, (R)-N-(1-((1H-indol-3-yl)methyl)piperidin-3-yl)-1H-indazol-5-amine] | 6.77 | 6.77 | 8.35 | 8.35 | 6.69 | 6.69 | 1260 | 7.52 | 7.52
Cc1ccc(CN2CCC[C@H](Nc3ccc4[nH]ncc4c3)C2)c(C)c1 [Compound 1.155, (S)-N-(1-(2,4-dimethylbenzyl)piperidin-3-yl)-1Hindazol-5-amine] | 5.76 | 5.76 | 8.15 | 8.15 | 5.25 | 5.25 | 32 | 7.34 | 7.34
Fc1ccc(CN2CCC[C@H](Nc3ccc4[nH]ncc4c3)C2)cc1 [Compound 1.164, (S)-N-(1-(4-fluorobenzyl)piperidin-3-yl)-1H-indazol-5-amine] | 5.71 | 5.71 | 8.21 | 8.21 | 5.37 | 5.37 | 1500 | 7.37 | 7.37
O=C(COc1cccc(CN2CCC[C@@H](Nc3ccc4[nH]ncc4c3)C2)c1)Nc1cccnc1 [Compound 1.126, (R)-2-(3-((3-(1H-indazol-5-ylamino)piperidin-1-yl)methyl)phenoxy)-N-(pyridin-3-yl)acetamide] | – | – | 7.76 | 7.76 | – | – | 0 | 7.12 | 7.12
C#Cc1cccc(CN2CCC[C@@H](Nc3ccc4[nH]ncc4c3)C2)c1 [Compound 1.193, (R)-N-(1-(3-ethynylbenzyl)piperidin-3-yl)-1H-indazol-5-amine] | – | – | 7.83 | 7.83 | – | – | 55 | 7.19 | 7.19
c1cc(N[C@@H]2CCN(Cc3ccc4[nH]ccc4c3)C2)c2ccncc2c1 [Compound 2.065, (R)-N-(1-((1H-indol-5-yl)methyl)pyrrolidin-3-yl)isoquinolin-5-amine] | – | – | 8.74 | 8.74 | – | – | 236 | 8.39 | 8.39
CCS(=O)(=O)Nc1cc(CN2CCC[C@@H](Nc3ccc4[nH]ncc4c3)C2)ccc1C [Compound 1.259, (R)-N-(5-((3-(1H-indazol-5-ylamino)piperidin-1-yl)methyl)-2-methylphenyl)ethanesulfonamide] | – | – | 8.68 | 8.68 | – | – | 264 | 7.71 | 7.71
Oc1cccc(CN2CC[C@@H](Nc3cccc4cnccc34)C2)c1 [Compound 2.061, (R)-3-((3-(isoquinolin-5-ylamino)pyrrolidin-1-yl)methyl)phenol] | – | – | 8.74 | 8.74 | – | – | 73 | 7.98 | 7.98
CC(C)(C)OC(=O)NCc1cccc(CN2CCC[C@H](Nc3ccc4[nH]ncc4c3)C2)c1 [Compound 1.176, (S)-tert-butyl 3-((3-(1H-indazol-5-ylamino)piperidin-1-yl)methyl)benzylcarbamate] | 5.06 | 5.06 | – | – | 4.68 | 4.68 | 89 | 6.50 | 6.50
NC(=O)Cn1ccc2ccc(CN3CCC[C@@H](Nc4ccc5[nH]ncc5c4)C3)cc21 [Compound 1.106, (R)-2-(6-((3-(1H-indazol-5-ylamino)piperidin-1-yl)methyl)-1H-indol-1-yl)acetamide] | 5.88 | – | 7.82 | – | 5.41 | – | – | 6.65 | –
Cc1ccc(S(=O)(=O)Nc2cc(CN3CCC[C@@H](Nc4ccc5[nH]ncc5c4)C3)ccc2C)cc1 [Compound 1.260, (R)-N-(5-((3-(1H-indazol-5-ylamino)piperidin-1-yl)methyl)-2-methylphenyl)-4-methylbenzenesulfonamide] | – | – | 8.15 | 8.15 | – | – | 291 | 7.15 | 7.15
C=Cc1ccc(CN2CCC[C@@H](Nc3ccc4[nH]ncc4c3)C2)cc1 [Compound 1.208, (R)-N-(1-(4-vinylbenzyl)piperidin-3-yl)-1H-indazol-5-amine] | 6.14 | – | 7.89 | – | 6.46 | – | – | 7.27 | –
Cc1ccc(CN2CCC[C@H](Nc3ccc4[nH]ncc4c3)C2)cc1 [Compound 1.078, (S)-N-(1-(4-methylbenzyl)piperidin-3-yl)-1H-indazol-5-amine] | 5.78 | – | 8.44 | – | 5.49 | – | – | 7.44 | –
c1cc(N[C@@H]2CCN(Cc3ccc4cc[nH]c4c3)C2)c2ccncc2c1 [Compound 2.057, (R)-N-(1-((1H-indol-6-yl)methyl)pyrrolidin-3-yl)isoquinolin-5-amine] | – | – | 8.43 | 8.43 | – | – | 431 | 8.21 | 8.21
